A short description of data set [1]: Microsomal stability assay, rat liver microsomes (RLM). The format is in vitro ADME. The following applies: rat liver microsomes 0.5 mg/mL, 1 uM substrate, 2 mM NADPH, 37° C., vs time zero control. How it is done: (§1) Microsomal Stability Assay. Compounds were incubated at 37° C. and shaken for 30 minutes in a phosphate buffered solution with either rat or human liver microsomes and the cofactor NADPH. A time zero control was similarly prepared, however with NADPH excluded. The final incubation concentrations were 1 uM substrate (0.2% DMSO), 0.5 mg/mL liver microsome, 2 mM NADPH, and 0.1 M phosphate. Reactions were quenched and proteins precipitated with the addition of 2 volume equivalents of ice cold acetonitrile containing an internal standard. Following a centrifugation step, aliquots from the quenched incubations were further diluted with 4 volume equivalents of a 50% aqueous methanol solution and then subjected to LC/MS/MS analysis for quantitation of parent compound. Microsome stability values were calculated as the percent of substrate remaining after 30 minutes referenced against the time zero control.
(§2) Microsomal stability in rat and human liver microsomes were determined for selected compounds of the present invention using the above assay. Table 4 provides the human liver microsomes (“HLM”) and rat liver microsomes (“RLM”) stability data as the percent of compound remaining after 30 minutes referenced against the time zero control.
For orientation: Liver microsomes are vesicles of endoplasmic reticulum, rich in cytochrome P450 enzymes.

Data set [2] is described as follows: Microsomal stability assay, human liver microsomes (HLM). The format is in vitro ADME. The following applies: human liver microsomes 0.5 mg/mL, 1 uM substrate, 2 mM NADPH, 37° C., vs time zero control. As for the experimental part:
as §1, §2

Structures are written as SMILES.

For the compound `COc1ccc(Oc2cc(Cl)c(Cl)cc2C(=O)Nc2cc[nH]c(=O)c2)cc1F` [Compound 115, 4,5-dichloro-2-(3-fluoro-4-methoxyphenoxy)-N-(2-oxo-1,2-dihydropyridin-4-yl)benzamide], in data set [1], the “RLM (% remaining @ 30 minutes)” value stood at 95%.
On to `O=C(Nc1cc[nH]c(=O)c1)c1cc(F)c(Cl)cc1Oc1ccc(F)cc1Cl` [Compound 109, 4-chloro-2-(2-chloro-4-fluorophenoxy)-5-fluoro-N-(2-oxo-1,2-dihydropyridin-4-yl)benzamide], for which, in data set [1], the “RLM (% remaining @ 30 minutes)” value was determined as 100%.
With `COc1cc(F)ccc1Oc1ccc(C(F)(F)F)cc1C(=O)Nc1cc[nH]c(=O)c1` [Compound 30, 2-(4-fluoro-2-methoxyphenoxy)-N-(2-oxo-1,2-dihydropyridin-4-yl)-5-(trifluoromethyl)benzamide], in data set [2], the “HLM (% remaining @ 30 minutes)” value turned out to be 76%. The “RLM (% remaining @ 30 minutes)” value in data set [1] came to 78%.
Turning to `COc1cc(F)ccc1Oc1cc(C(F)(F)C(F)(F)F)ccc1C(=O)Nc1cc[nH]c(=O)c1` [Compound 111, 2-(4-fluoro-2-methoxyphenoxy)-N-(2-oxo-1,2-dihydropyridin-4-yl)-4-(perfluoroethyl)benzamide], the “HLM (% remaining @ 30 minutes)” value in data set [2] amounted to 91%. Also, in data set [1], the “RLM (% remaining @ 30 minutes)” value stood at 90%.
Regarding `O=C(Nc1cc[nH]c(=O)c1)c1ccc(C(F)(F)C(F)(F)F)cc1Oc1ccc(F)cc1` [Compound 88, 2-(4-fluorophenoxy)-N-(2-oxo-1,2-dihydropyridin-4-yl)-4-(perfluoroethyl)benzamide], the “HLM (% remaining @ 30 minutes)” value in data set [2] worked out at 100%.
`COCCOc1ccc(Oc2cc(C(F)(F)F)ccc2C(=O)Nc2cc[nH]c(=O)c2)cc1` [Compound 8, 2-(4-(2-methoxyethoxy)phenoxy)-N-(2-oxo-1,2-dihydropyridin-4-yl)-4-(trifluoromethyl)benzamide]: the “HLM (% remaining @ 30 minutes)” value in data set [2] was 90%. The “RLM (% remaining @ 30 minutes)” value in data set [1] is 86%.
Turning to `CC(C)(C)c1ccc(C(=O)Nc2ccc(=O)[nH]c2)c(Oc2ccc(C(F)(F)F)nc2)c1` [Compound 142, 4-(tert-butyl)-N-(6-oxo-1,6-dihydropyridin-3-yl)-2-((6-(trifluoromethyl)pyridin-3-yl)oxy)benzamide], the “HLM (% remaining @ 30 minutes)” value in data set [2] was 38%. Besides, the “RLM (% remaining @ 30 minutes)” value in data set [1] worked out at 50%.
Consider `O=C(Nc1cc[nH]c(=O)c1)c1ccc(C(F)(F)F)cc1Oc1ccc(OC(F)(F)F)cc1` [Compound 79, N-(2-oxo-1,2-dihydropyridin-4-yl)-2-(4-(trifluoromethoxy)phenoxy)-4-(trifluoromethyl)benzamide], for which, in data set [1], the “RLM (% remaining @ 30 minutes)” value was found to be 100%.
With `Cc1cc(F)ccc1Oc1cc(C(F)(F)F)ccc1C(=O)Nc1cc[nH]c(=O)c1` [Compound 10, 2-(4-fluoro-2-methylphenoxy)-N-(2-oxo-1,2-dihydropyridin-4-yl)-4-(trifluoromethyl)benzamide], in data set [2], the “HLM (% remaining @ 30 minutes)” value turned out to be 93%. In addition, in data set [1], the “RLM (% remaining @ 30 minutes)” value came out at 82%.
Taken in the same sequence, the figures for `Cc1ccccc1Oc1ccc(C(F)(F)F)cc1C(=O)Nc1cc[nH]c(=O)c1` [Compound 28, N-(2-oxo-1,2-dihydropyridin-4-yl)-2-(o-tolyloxy)-5-(trifluoromethyl)benzamide] were 79% and 70%.
For `O=C(Nc1cc[nH]c(=O)c1)c1ccc(C(F)(F)F)cc1Oc1ccc(F)cc1F` [Compound 7, 2-(2,4-difluorophenoxy)-N-(2-oxo-1,2-dihydropyridin-4-yl)-4-(trifluoromethyl)benzamide], in data set [2], the “HLM (% remaining @ 30 minutes)” value amounted to 97%. The “RLM (% remaining @ 30 minutes)” value in data set [1] is 99%.
Taken in the same sequence, the figures for `O=C(Nc1cc[nH]c(=O)c1)c1cc(OC(F)(F)F)ccc1Oc1ccc(F)cc1Cl` [Compound 37, 2-(2-chloro-4-fluorophenoxy)-N-(2-oxo-1,2-dihydropyridin-4-yl)-5-(trifluoromethoxy)benzamide] were 100% and 97%.
On to `O=C(Nc1cc[nH]c(=O)c1)c1ccc(C(F)(F)F)cc1OCC1CCCC1` [Compound 120, 2-(cyclopentylmethoxy)-N-(2-oxo-1,2-dihydropyridin-4-yl)-4-(trifluoromethyl)benzamide], for which the “HLM (% remaining @ 30 minutes)” value in data set [2] is 87%. In data set [1], the “RLM (% remaining @ 30 minutes)” value was found to be 79%.
As to `Cc1cc(F)ccc1Oc1cc(Cl)ccc1C(=O)Nc1cc[nH]c(=O)c1` [Compound 20, 4-chloro-2-(4-fluoro-2-methylphenoxy)-N-(2-oxo-1,2-dihydropyridin-4-yl)benzamide], in data set [1], the “RLM (% remaining @ 30 minutes)” value is on record as 88%.
Same read-out and setting: under `O=C(Nc1cc[nH]c(=O)c1)c1ccc(C(F)(F)F)cc1OCCCC(F)(F)F` [Compound 123, N-(2-oxo-1,2-dihydropyridin-4-yl)-2-(4,4,4-trifluorobutoxy)-4-(trifluoromethyl)benzamide] stands 98%.
For `Cc1cc(F)ccc1Oc1ccc(C(F)(F)F)cc1C(=O)Nc1cc[nH]c(=O)c1` [Compound 31, 2-(4-fluoro-2-methylphenoxy)-N-(2-oxo-1,2-dihydropyridin-4-yl)-5-(trifluoromethyl)benzamide], in data set [2], the “HLM (% remaining @ 30 minutes)” value stood at 92%. In data set [1], the “RLM (% remaining @ 30 minutes)” value was determined as 91%.
On to `O=C(Nc1cc[nH]c(=O)c1)c1cc(C(F)(F)F)ccc1Oc1ccc(F)cc1` [Compound 2, 2-(4-fluorophenoxy)-N-(2-oxo-1,2-dihydropyridin-4-yl)-5-(trifluoromethyl)benzamide], for which the “HLM (% remaining @ 30 minutes)” value in data set [2] came to 100%.
As for `CCOc1ccc(Oc2ccc(C(F)(F)F)cc2C(=O)Nc2cc[nH]c(=O)c2)cc1` [Compound 44, 2-(4-ethoxyphenoxy)-N-(2-oxo-1,2-dihydropyridin-4-yl)-5-(trifluoromethyl)benzamide], the “HLM (% remaining @ 30 minutes)” value in data set [2] was determined as 93%. The “RLM (% remaining @ 30 minutes)” value in data set [1] amounted to 84%.
With `O=C(Nc1cc[nH]c(=O)c1)c1ccc(C(F)(F)F)cc1Oc1ccc(OC(F)F)cc1` [Compound 82, 2-(4-(difluoromethoxy)phenoxy)-N-(2-oxo-1,2-dihydropyridin-4-yl)-4-(trifluoromethyl)benzamide], in data set [1], the “RLM (% remaining @ 30 minutes)” value is on record as 98%.
On to `Cc1cc(F)ccc1Oc1ccc(Cl)cc1C(=O)Nc1cc[nH]c(=O)c1` [Compound 68, 5-chloro-2-(4-fluoro-2-methylphenoxy)-N-(2-oxo-1,2-dihydropyridin-4-yl)benzamide], for which, in data set [2], the “HLM (% remaining @ 30 minutes)” value was determined as 98%. For the same compound, the “RLM (% remaining @ 30 minutes)” value in data set [1] was 72%.
On to `COc1cc(F)ccc1Oc1cc(Cl)c(Cl)cc1C(=O)Nc1cc[nH]c(=O)c1` [Compound 114, 4,5-dichloro-2-(4-fluoro-2-methoxyphenoxy)-N-(2-oxo-1,2-dihydropyridin-4-yl)benzamide], for which the “HLM (% remaining @ 30 minutes)” value in data set [2] came out at 91%. For the same compound, the “RLM (% remaining @ 30 minutes)” value in data set [1] was 82%.
As to `O=C(Nc1cc[nH]c(=O)c1)c1cc(Cl)ccc1Oc1ccc(F)cc1Cl` [Compound 66, 5-chloro-2-(2-chloro-4-fluorophenoxy)-N-(2-oxo-1,2-dihydropyridin-4-yl)benzamide], in data set [2], the “HLM (% remaining @ 30 minutes)” value turned out to be 100%.
Turning to `O=C(Nc1cc[nH]c(=O)c1)c1cc(OC(F)(F)F)ccc1Oc1ccc(F)cc1F` [Compound 33, 2-(2,4-difluorophenoxy)-N-(2-oxo-1,2-dihydropyridin-4-yl)-5-(trifluoromethoxy)benzamide], the “HLM (% remaining @ 30 minutes)” value in data set [2] stood at 100%. Moreover, in data set [1], the “RLM (% remaining @ 30 minutes)” value is given as 110%.
For the compound `O=C(Nc1cc[nH]c(=O)c1)c1cc(C(F)(F)F)ccc1Oc1ccccc1OC(F)(F)F` [Compound 75, N-(2-oxo-1,2-dihydropyridin-4-yl)-2-(2-(trifluoromethoxy)phenoxy)-5-(trifluoromethyl)benzamide], the “HLM (% remaining @ 30 minutes)” value in data set [2] was 90%. Also, in data set [1], the “RLM (% remaining @ 30 minutes)” value worked out at 95%.
As for `O=C(Nc1cc[nH]c(=O)c1)c1c(Oc2ccc(F)cc2F)cc(C(F)(F)F)cc1C(F)(F)F` [Compound 152, 2-(2,4-difluorophenoxy)-N-(2-oxo-1,2-dihydropyridin-4-yl)-4,6-bis(trifluoromethyl)benzamide], the “RLM (% remaining @ 30 minutes)” value in data set [1] worked out at 100%.
Take `O=C(Nc1cc[nH]c(=O)c1)c1cc(F)ccc1Oc1ccc(OC(F)(F)F)cc1` [Compound 101, 5-fluoro-N-(2-oxo-1,2-dihydropyridin-4-yl)-2-(4-(trifluoromethoxy)phenoxy)benzamide]: the “HLM (% remaining @ 30 minutes)” value in data set [2] came out at 97%. For the same compound, in data set [1], the “RLM (% remaining @ 30 minutes)” value is on record as 89%.
On the same counts, the results for `O=C(Nc1cc[nH]c(=O)c1)c1cc(C(F)(F)F)ccc1Oc1ccccc1OC(F)F` [Compound 76, 2-(2-(difluoromethoxy)phenoxy)-N-(2-oxo-1,2-dihydropyridin-4-yl)-5-(trifluoromethyl)benzamide] are 97% and 93%.
Take `O=C(Nc1cc[nH]c(=O)c1)c1cc(C(F)(F)F)ccc1Oc1ccc(OC(F)(F)F)cc1` [Compound 72, N-(2-oxo-1,2-dihydropyridin-4-yl)-2-(4-(trifluoromethoxy)phenoxy)-5-(trifluoromethyl)benzamide]: the “HLM (% remaining @ 30 minutes)” value in data set [2] turned out to be 100%.

For the origin of these results see patent US10738009B2, “Pyridone amides as modulators of sodium channels” (VERTEX PHARMACEUTICALS INCORPORATED, priority 2013, dated 2020).
